Assay results published in patent publication US10273503B2, “Compounds and methods for enhancing viral gene transfer to human hematopoietic cells” (UNIVERSTÉ DE MONTRÉAL, priority 2015, dated 2019).

Columns and labels:
human CD34+ cells = experiment: Expansion of human CD34+ cells (EC50, CD34+CD45RA- cell count); type: cell-based; settings: concentration that results in a 50% increase in CD34+CD45RA- cell count compared to vehicle cultures (DMSO)
human CD34+ CB cells = type: cell-based; settings: for gene transfer efficiency to human CD34+ CB cells and CD34+ subsets, variants of Cmpd1: prestimulated 16 hours and transduced 6 hours in presence of compound, FACS after 3 additional days (FIGS. 16A, 16B)
Procedure: The cells were then exposed for 6 hours to a GFP lentiviral vector (10^6 iu/mL) in the same medium. […] At the end of the culture media, cells were harvested, stained for CD34 and analysed by flow cytometry.
The vector constructs were sequence-verified. […] Virus-containing supernatants were concentrated by ultracentrifugation to achieve titers of 0.5×10^9 to 5×10^9 infectious units/ml. Viral titers were determined by transducing HeLa cells with three dilutions of the lentiviral vector.
Umbilical cord blood (CB) and mobilized peripheral blood (mPB) cells were collected with consent according to procedures approved by the Research Ethics Board of the University of British Columbia. CD34^+ enriched adult bone marrow cells were purchased from […] Technologies. CD34^+ CB and mPB cells were enriched to >90% purity using first RosetteSep™ CD34 preenrichment cocktail ([…] Technologies) followed by positive selection using magnetic beads (EasySep kit, […] Technologies). In some cases additional enrichment was done by sorting CD34^+ cells using an Influx II sorter (BD Bioscience). […] All flow cytometric analysis was performed using a LSRII Fortessa® (BD Biosciences).

[1] = tested on: macaque umbilical cord blood CD34+ cells; settings: after transplantation of co-cultured macaque cord blood CD34+ cells

SMILES | EC50 (human CD34+ cells; Homo sapiens, read-out: Biological data (EC50)*) [nM] | gene transfer efficiency to human CD34+ CB cells and CD34+ subsets, variants of Cmpd1 (human CD34+ CB cells) | Biological data (EC50)* (human CD34+ cells) | proportion of primate CD45+ cells in the blood of transplanted mice [1] | enhancement of lentiviral-mediated gene transfer (in words) (human CD34+ CB cells; SR1 0.75 μM, assessed 3 days post-infection on CD34+ cells from cord blood)
CCCOC(=O)c1ccc2c(c1)[nH]c1ncnc(NCCCN3CCCCC3)c12 [Cmpd 7, propyl 4-((3-(piperidin-1-yl)propyl)amino)-9H-pyrimido[4,5-b]indole-7-carboxylate] | > 1000 | not observed | – | – | –
COC(=O)c1ccc2c(c1)[nH]c1nc(-c3ccccc3)nc(NCCCN3CCCCC3)c12 [Cmpd 8, methyl 2-phenyl-4-((3-(piperidin-1-yl)propyl)amino)-9H-pyrimido[4,5-b]indole-7-carboxylate 2,2,2-trifluoroacetate] | – | not observed | inactive | – | –
CC(C)n1cnc2c(NCCc3ccc(O)cc3)nc(-c3csc4ccccc34)nc21 [SR1, StemRegenin 1, reference compound] | – | – | – | not obtained | not observed
